According to US20210369583A1, “COMPOSITIONS FOR PROVIDING SKIN CARE BENEFITS AND METHODS OF USE” (Danisco US Inc., priority 2018, published 2021):
Marks after values point to notes of the source that are not given here.

Legend:
Type in all cases: cell-based
[1] = test system: human living skin explant; experiment: TUNEL assay (UV-induced DNA damage) on human living skin explants; conditions: UV irradiated
Procedure: (§1) human skin explants of an average diameter of 12 mm (±1 mm) were prepared on an abdoplasty coming from a person). The explants were kept in survival in BEM culture medium at 37° C. in a humid, 5%-CO2 atmosphere.
(§2) On day 0 (D0), day 1, day 2 and day 3 (3 hours before irradiation), the tested products were applied topically on surface of skin explants at the rate of 2 mg/cm^2, twice a day for D1 and D2 and once on DO and D3. […] The medium was half renewed (1 ml per well) on day 2.
(§3) On D3, the culture media of all the batches was replaced by HBSS solution (Hank's Balanced Saline Solution; 1 ml per explant). The batches “UV” were irradiated by UVA+ UVB using a UV simulator Vibert Lourmat RMX 3W with a dose of 18 J/cm2 of UVA (4 MED, minimal erythemal dose) and 0.3 J/cm2 of UVB (2 MED). The unirradiated batches were kept in HBSS in the dark. At the end of the irradiation the explants were put back in 2 mL of BEM medium.
(§4) After fixation for 24 hours in buffered formalin, the samples were dehydrated and impregnated in paraffin using a Leica PEARL dehydration automat. The samples were embedded using a Leica EG 1160 embedding station. 5-μm-thick sections were made using a Leica RM 2125 Minot-type microtome, and the sections were mounted on Superfrost® histological glass slides. The frozen samples were cut into 7-μm-thick sections using a Leica CM 3050 cryostat. Sections were then mounted on Superfrost® plus silanized glass slides. The microscopical observations were realized using a Leica DMLB or Olympus BX43 microscope. Pictures were digitized with a numeric DP72 Olympus camera with CellD storing software.
DNA oxidization is a type of damage that can be promoted by reactive oxygen species (ROS), generated by UV exposure. […] The staining was assessed by microscopical observation. Batches analyzed were T, TUV, P1UV, P2UV, P3UV at day 4 also referred to as TJ4, TUVJ4, P1UVJ4, P2UVJ4, P3UVJ4 (T=Control batch non treated non irradiated; TJ4=T at Day 4 (D4); TUV: control batch non treated UV irradiated; TUVJ4=[…] at Day 4; P1J4: product A 4% non irradiated at D4; P2J4: product A 2% non irradiated at D4; P3J4: product A 1% non irradiated at D4; P1UV: product A 4% UV irradiated; P1UVJ4: product A 4% UV irradiated at D4 P2UV: product A 2% UV irradiated; P2UVJ4: product A 2% UV irradiated at D4; P3UV: product A 1% UV irradiated; P3UVJ4: product A 1% UV irradiated at D4

[2] = test system: living human skin explants; experiment: Biochemical assay of MDA (lipid peroxidation) on living human skin explants exposed to pollutants
Procedure: Product A (Table 11) was diluted in water to obtain the following products at concentrations: product P1=A at 4%, product P2=A at 2% and product P3=A at 1%.
(§5) 59 human skin explants of an average diameter of 14 mm (±1 mm) were prepared on an abdoplasty coming from a person. The explants were kept in survival in BEM culture medium at 37° C. in a humid, 5%-CO2 atmosphere.
(§6) The tested products were topically applied on the basis of 2 μl per cm^2 and spread using a small spatula twice a day (morning and evening) on day 0, 1, 2, 3 and 4.
(§7) On D4, the explants of the batches ML and PML were placed on the 3D grid with 900 μl of HBSS and placed into the PolluBox® system.
(§8) 3 mL of the solution <<ML>> (supplemented with 150 μl/ml of NaCl 0.9%) were exposed by vaporization for 1 hour and half, as shown in the figure below.
The MDA assay was realized with an enhanced method of the TBARs (Thiobarbituric Acid Reactive Species) assay. The MDA was assayed in HBSS medium by addition of TBARs solution (thiobarbituric acid, hydrochloric acid and tricholoroacetic acid) and placed in a water bath (80° C. for 15 minutes). A lot of substances (like glucose) which are not related with lipoperoxidation, react with thiobarbituric acid (ThioBarbituric Acid Reagents=TBARS), so to enhance the specificity of the assay, the MDA was extracted by a liquid/liquid extraction with butanol. The MDA in butanol was measured in spectrofluorimetry (excitation: 515 nm, emission: 550 nm) using a Tecan Infinite M200 Pro microplate reader. Using this assay, MDA contained in the culture medium BEMc on […] was measured for the 4 explants per batch. The MDA concentration was expressed in pmol of MDA/ml of the medium. Concerned batches: all batches on day 5, 4 explants per batch.
The average of the blank batch TJ5 was calculated (154.0 nmol/L). Then, for each explant of MLJ5, this average value was subtracted from […]. That corresponds to calculating the delta (increase) of MDA induced by ML for each explant compared to the average of the batch without ML, it is ΔML.
These average deltas were then compared to the average delta of MDA induction without treatment (ΔML).

[3] = test system: human living skin explant; experiment: Immunostaining of carbonylated proteins (FTZ) on human living skin explants; conditions: UV irradiated
Procedure: as §1, §2, §3, §4
Protein carbonylation is a type of protein oxidation that can be promoted by reactive oxygen species (ROS), generated by UV exposure. FTZ marker assay was conducted by immunostaining in the living epidermis of human skin explant as follows: Carbonylated proteins were stained on frozen sections with the anti-carbonylated proteins probe (fluorescein-5-thiosemicarbazid-FTZ) (Lifetechnologies, Ref. F-121) diluted at 0.5 μM in MES-Na+ and incubated for 30 minutes in the dark and at room temperature. The staining was observed by epifluorescence and assessed by microscopical observations. Batches analyzed were T, TUV, P1UV, P2UV, P3UV at day 4 also referred to as TJ4, TUVJ4, P1UVJ4, P2UVJ4, P3UVJ4

[4] = test system: human living skin explant; experiment: Cell viability of human living skin explants (UV study); conditions: non irradiated; day 4
Procedure: as §1, §2, §3, §4

[5] = test system: Aryl hydrocarbon receptor (AhR); experiment: Immunostaining of AHR in human skin explants, image analysis
Procedure: as §5, §6, §7, §8
Aryl hydrocarbon receptor (AhR) is a transcriptional factor implicated in molecular response following the exposure of several compounds, including aromatic polycyclic hydrocarbon and ozone (Haarmann-Stemmann et al. 2012.JID 132:7-9; Afaq et al., 2009 JID 129:2396-2403). AhR is involved in activation of cytochrome family genes and CYP450 detoxification enzymes. In presence of pollution AhR is dissociated from the protein complex (HSP90), translocated to the nucleus, dimerized with ARNt, and binds to the DNA on target genes (Cytochrome family—activated in response to xenobiotics) (Ikuta et al., 2009. Biochemical pharmacology. 77:588-596). […] The immunostaining was performed using an automated slide processing system (Autostainer, Dako) and assessed by microscopical observation. Concerned batches: all the batches
The images analyses were performed on all the images (9 to 12 images) of each batch using the CellD storing software (Olympus Microscopy, Matrix Optics (M)SdnBhd, Taman Mayhang, Maylasia). For each batch of explants, the percentage of the region of interest covered by the staining (stained surface percentage) was determined by image analysis. […]
The ΔML for each treatment P was calculated using the same method to obtain the ΔPML, i.e. the variation of the Surf % induced by the pollutants exposure when treated with P. […]

[6] = after pollutants exposure, day 5

O=C(O)[C@@H]1CCCN1 [Combination P6, L-Proline]
activity against UV-induced DNA damage [1]: totally inhibits the increase of DNA damage
MDA, variation ΔPML vs ΔML ([2]; MDA induction by pollutants, day 5): −62%*
reduction of the increase of MDA ([2]; after pollutant exposure (ΔPML vs ΔML)): 62%
MDA, variation PML vs ML [2, 6]: −18%*
effect on UV-induced carbonylated proteins [3]: slightly inhibits the formation of carbonylated proteins
Cell Viability, variation vs TJ4 [4]: ↔ (indicates no variation)
AHR, variation PML vs ML [5, 6]: −15%**
decrease of AhR expression compared to batch TJ5 ([5]; without pollutants, D5): 63%
AHR, variation P vs T ([5]; without pollutants, day 5): −63%*
